Experimental data reported in patent US7132286B2, “Method for neural stem cell differentiation using valproate” (Psychiatric Genomics, Inc., priority 2001, dated 2006).
“Also recorded” adds a separate entry of the source.

Columns and labels:
β tubulin-III = test: Western blot of β tubulin-III expression in rat cortical stem cells; format: cell-based; conditions: valproate 1 day
[1] = literature; cited from earlier work
[2] = test system: human striatal stem cells (line 161); test: Neuronal differentiation of human striatal stem cells (β tubulin III neurons, total cells); format: cell-based; conditions: 9 days
Protocol: Expansion and differentiation of striatal human stem cells. Human stem cells were provided from ReNeuron Inc. (U.K.). Striatum was obtained after 6 to 12 weeks of gestation from routine legal abortion. Cell line was provided by ReNeuron at passage 16. The stem cells were expanded in untreated 25 cm^2 tissue culture flasks (Nunc, USA) in the presence of 20 ng/ml and 10 ng/ml of human recombinant EGF and bFGF respectively, in NSA basal serum-free medium (Euroclone, U.K). Fresh medium and growth factors were added every 3 days. In these conditions stem cells were growing as floating neurospheres. After 4 weeks, the neurospheres were harvested, treated with a mild papain treatment in HBSS and dissociated into a single cell suspension. Cells were counted and viability was estimated by trypan blue exclusion method. Cells were differentiated by growth factors removal. The cells were plated in NSA medium at 20,000 cells/well on LabTek permanox culture slides of 8 wells precoated with laminin (1 μg/ml). Cells were treated with valproate and BDNF for 9 days at 37° C. and a saturated humidified atmosphere of 5% CO2, 1% O2 and 94% N2. Fresh medium and re-treatment with factors was performed every 3 days.
(§1) Drug treatment. For immunofluorescence and Western analysis, cells were treated daily with either 0.5 mM of valproate (Sigma), 10 ng/ml of BDNF (R & D Systems), 20 ng/ml of NT-3 (R & D Systems), 1 nM 9cis retinoic acid (Sigma) or a dilution of NCM for 6 or 7 days. In some experiments valproate was also added with NCM and/or 9cis RA for 7 days. For human stem cell experiments, valproate (0.5 mM) or BDNF (25 ng/ml) was added for 9 days. For neurite outgrowth experiments, cells were treated for 1 day with 0.5 mM valproate or 50 ng/ml of BDNF. Where applicable, medium was changed every 2 days. After about 5–10 days, preferably on day 6 (i.e., after 6 days of drug exposure) the cells were fixed with a 4% solution of para-formaldehyde (PFA) in PBS, prepared as follows:
Immunofluorescent staining and visualization. Cells were plated at 20,000 cells/well in poly-L-ornithine/fibronectin (1 mg/ml) coated 24-well plates. […]
For counting, three to five different fields of interest at magnification 10× or 20× were chosen randomly. For immunofluorescence, 3 different black and white pictures were taken by field of interest with a digital camera CoolSnap Fx (Princeton) corresponding to the exposure of Cy2, Cy3 and Hoechst fluorescence. […] The percentage of neurons, astrocytes and GABAergic cells was determined by comparing the number of cells immunopositive for β-tubulin III, GFAP and GABA to the number of bis-benzamide stained nuclei (i.e., total cell number). […]

rat cortical stem cells = test: Neuronal differentiation of rat cortical stem cells (β-tubulin III immunofluorescence, cell counting); format: cell-based
Text: Isolation of cortical and striatal stem cells. Timed pregnant Sprague Dawley rats were obtained from Taconic at embryonic age E14–E15 were sacrificed by inhalation of excess carbon dioxide. The abdomen of the rat was cleaned with 70% ethanol and the uterus was removed quickly and aseptically on the bench top. The uterus was placed in ice cold HBSS (GIBCO Cat. #20012-027) in a 10 cm petridish. After rinsing the uterus in PBS, embryos were removed from the uterus, rinsed in HBSS and collected in cold HBSS (buffered with HEPES and sodium bicarbonate) in a 10 cm petridish and placed on ice.
Plating, expansion and passaging of cortical and striatal stem cells. A generous amount of the triturated cell suspension was left in the original 15 ml tube to avoid fibroblast contamination in cultures. About 4–5 ml of the 6 ml of cells suspension was used for plating. Cells were plated at a concentration of 1.3×10^3 cells to 3.0×10^3 per cm^2 in 100 mm dish. This culture is designated P0 (passage 0).
Following plating cells were expanded for about 3–4 days (Passage 1, P1). Cells were treated daily with 10 ng/ml bFGF. The cultures were never permitted to reach more than 70% confluency. Cultures were then passaged as follows: 10 ml of HBSS without Ca^2+ and Mg^2+ was added to each 100 mm dish and the cells incubated at 37° C. for 5–15 minutes, or until sufficient numbers of the stem cells were rounded up. It is not expected that all cells in the culture will round up as there are several cell types in the culture at P0. The pH of the HBSS should be neutral at all times during this incubation. Cells were then removed from the dish by pipetting with a 5 ml pipette, and collected in a 15 or 50 ml conical tube, and centrifuged at 1000 g for 5 minutes. Cells were gently re-suspended in medium, counted, and plated at a density of 1×10^6 cells in 10 cm dishes and expanded for about 2 days in bFGF (Passage 1, P1). At that time the cells were passaged as described and plated onto pre-coated poly-L-ornithine/fibronectin vessels at concentrations indicated below for each experiment. Cells were treated with bFGF for 2 additional days. Before each treatment the bFGF was removed from the cells by washing twice with DMEM/F 12 to induce cell differentiation. For neurite outgrowth experiments, cells were seeded at 5×10^3 cells/well in 24-well plates and treated immediately.
as §1
Immunofluorescent staining and visualization. Cells were plated at 20,000 cells/well in poly-L-ornithine/fibronectin (1 mg/ml) coated 24-well plates. After fixation, the PBS was aspirated from the fixed cells and the cells were treated with blocking solution (10% normal goat serum-NGS-Jackson Labs), 0.3% Triton-Sigma, in PBS) to saturate non-specific sites and permeabilize the cells. […]

[3] = rat cortical stem cells, 6 days, vs control

CCCC(CCC)C(=O)O [valproate, 2-Propylpentanoic acid]
β-tubulin III expression by Western blot (β tubulin-III): increase of β-tubulin III expression; also recorded: increases β tubulin-III expression | teratogenic activity [1]: established human teratogen | effect on cell proliferation (cell density) [2]: without inhibiting cell proliferation | effect on number of β tubulin III positive neurons / neuronal differentiation [2]: increased the number of β tubulin III positive neurons compared to control and BDNF-treated cultures; also recorded: increases neuronal differentiation in human stem cell culture | neuronal differentiation ([2]; 0.5 mM valproate, BDNF 25 ng/ml, untreated control 40%): 70% | increase of percentage of β-tubulin III expressing neurons over the control (rat cortical stem cells; rat cortical neural stem cells, 6 days): ~5 fold | morphology of neurons (rat cortical stem cells; rat cortical stem cells, 6 days valproate): growing in clusters and had longer process than cells in control | effect on neuronal differentiation (percentage of β-tubulin-III expressing cells) in words (rat cortical stem cells; [3]): increases neuronal differentiation more efficiently than neurotrophins or growth factors | effect on number of neurons per field (rat cortical stem cells; [3]): increases the number of neurons | effect on total cell number (proliferation), bis-benzimide nuclei (rat cortical stem cells; [3]): without valproate affecting the total cell number; also recorded: total number of cells is comparable to control; also recorded: does not inhibit neural stem cell proliferation | percentage of β-tubulin III expressing neurons (mean+SD) (rat cortical stem cells; rat cortical stem cells, daily treatment 6 days, 0.5 mM valproate, 10 ng/ml BDNF, 20 ng/ml NT-3, untreated control 6.2+1.8%): 25.8+0.8% | neuronal differentiation compared to control, in words (rat cortical stem cells; rat cortical stem cells, daily treatment 7 days, 0.5 mM valproate, 0.5× NCM, 1 nM 9-cis RA): increased the neuronal differentiation | maximum percentage of neurons (rat cortical stem cells; valproate added with 9-cis RA and NCM, 7 days, rat cortical stem cells): 60%
